Reference: PMC7369900 (International Journal of Molecular Sciences, 2020)
Values after ≈ are worked out from the molar mass of the structure shown. Where two headings read alike, the source gives them in different places.

How the values were obtained:
[1] = tested on: HL-60; assay: ROS generation (CM-H2DCFDA, flow cytometry); assay type: cell-based, human
Procedure: (§1) In the positive controls treated with H2O2, the fraction of ROS-positive cells exceeded 75%. […] Strikingly, in HL-60, a biologically significant effect was observed almost immediately (after 15 min of incubation). The same was noted after 1 h in the HEK 293 cell line. […] Similarly, conjugates 4 and 5 generated ROS at the low level (less than 15% for HL-60 and less than 20% for HEK 293) (manuscript in preparation). […] For HL-60, the critical level of ROS was noted after 15 min of incubation.
(§2) ROS generation activity was evaluated as described previously. Briefly, HEK 293 cells were seeded on 35-mm Petri dishes in the amount of 15,000 cells per plate for 24 h in DMEM medium. […] Positive controls contained 250 µM H2O2, while negative controls were without any additions. After 0.5, 2.5, 5.5, and 24 h of incubation at 37 °C, the CM-H2DCFDA molecular probe (Thermo Fischer Scientific, Waltham, USA) was added to the plates and incubation was continued for another 0.5 h. The HEK 293 cells were detached with 0.05% trypsin solution in PBS and HBSS (Hank’s Balanced Salt Solution) and suspended in fresh DMEM medium. All samples were additionally stained with 7-AAD (7-aminoactinomycin D, 0.8 µg/mL) and immediately analysed with a Guava easyCyte flow cytometer (Merc, Burlington, USA). The determinations were performed in triplicates.

[2] = tested on: HEK 293; assay: ROS generation (CM-H2DCFDA, flow cytometry); assay type: cell-based, human
Procedure: as §1, §2

[3] = tested on: E. coli ATCC 25,922; assay: Resistance induction by serial passage on MHA plates; assay type: cell-based, Escherichia coli; details: passaged with CIP 0.012 μM or 3 0.012 μM
[4] = target: T1, yeast DNA topoisomerase II (Saccharomyces cerevisiae, UniProt P06786); assay: biochemical; assay type: biochemical; details: for Topoisomerase II inhibition at the highest used concentration: 500 µM
T1 construct: purchased Inspiralis (Norwich, UK)
T1 sequence (P06786 whole entry): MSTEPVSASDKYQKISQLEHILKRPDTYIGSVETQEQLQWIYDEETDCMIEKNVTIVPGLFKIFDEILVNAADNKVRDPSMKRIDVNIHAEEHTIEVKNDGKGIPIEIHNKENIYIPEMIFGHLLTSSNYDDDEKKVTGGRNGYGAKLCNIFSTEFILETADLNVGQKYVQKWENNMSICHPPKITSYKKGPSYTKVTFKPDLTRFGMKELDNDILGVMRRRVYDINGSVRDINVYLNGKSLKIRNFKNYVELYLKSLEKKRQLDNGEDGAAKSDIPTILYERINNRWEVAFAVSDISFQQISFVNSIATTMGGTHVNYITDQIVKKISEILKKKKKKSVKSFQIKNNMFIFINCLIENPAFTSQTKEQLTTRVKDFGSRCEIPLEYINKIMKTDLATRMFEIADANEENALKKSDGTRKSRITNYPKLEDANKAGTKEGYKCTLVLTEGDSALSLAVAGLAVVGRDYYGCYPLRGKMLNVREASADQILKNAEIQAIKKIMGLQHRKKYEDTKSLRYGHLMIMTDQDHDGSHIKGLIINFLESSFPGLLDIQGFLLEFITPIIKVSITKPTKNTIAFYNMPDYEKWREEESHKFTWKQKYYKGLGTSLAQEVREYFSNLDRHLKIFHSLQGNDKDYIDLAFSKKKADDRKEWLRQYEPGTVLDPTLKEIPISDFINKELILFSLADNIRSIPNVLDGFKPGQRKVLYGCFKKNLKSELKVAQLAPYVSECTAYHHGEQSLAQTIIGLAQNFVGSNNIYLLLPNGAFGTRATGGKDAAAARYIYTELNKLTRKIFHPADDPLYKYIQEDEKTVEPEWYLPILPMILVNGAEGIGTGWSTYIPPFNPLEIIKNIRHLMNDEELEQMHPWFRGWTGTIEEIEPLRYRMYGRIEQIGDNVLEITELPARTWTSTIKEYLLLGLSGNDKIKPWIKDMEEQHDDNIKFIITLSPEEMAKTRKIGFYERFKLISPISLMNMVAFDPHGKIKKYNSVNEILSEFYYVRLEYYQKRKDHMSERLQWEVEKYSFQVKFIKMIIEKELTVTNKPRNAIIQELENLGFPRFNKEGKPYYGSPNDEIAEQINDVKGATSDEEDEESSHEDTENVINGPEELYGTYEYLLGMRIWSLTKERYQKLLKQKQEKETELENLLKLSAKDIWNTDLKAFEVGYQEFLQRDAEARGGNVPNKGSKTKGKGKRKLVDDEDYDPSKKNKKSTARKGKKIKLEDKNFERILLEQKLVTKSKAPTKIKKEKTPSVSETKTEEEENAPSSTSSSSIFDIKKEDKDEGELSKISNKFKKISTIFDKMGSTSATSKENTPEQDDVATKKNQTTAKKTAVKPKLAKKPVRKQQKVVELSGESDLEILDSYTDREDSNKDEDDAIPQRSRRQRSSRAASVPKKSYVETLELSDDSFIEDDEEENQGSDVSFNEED

[5] = tested on: S. aureus ATCC 29213; assay: microbe, parasite or virus in culture; assay type: cell-based, Staphylococcus aureus; details: S. aureus ATCC 29213, MHB
Procedure: (§3) The antibacterial activity of TP10-NH2-based conjugates, as well as its constituents, was evaluated by microdilution assay in Mueller Hinton broth, MHB (Table 1). […] There are, however, some exceptions. […] Its activity against two other tested bacteria was somewhat lower though.
(§4) The antibacterial activity (bacteriostatic: MIC and bactericidal: MBC) of the tested compounds was determined in MHB (Mueller Hinton Broth, Sigma Aldrich, St. Louis, MO, USA) using a serial two-fold dilution method in 96-well microtiter plates according to CLSI recommendations, described in M07-A10 document. The exact conditions have been described previously. All experiments were performed in three replicates. The MIC90 and MIC50 values were defined as the concentrations of compounds tested that caused a 90% or 50% reduction of growth, respectively, comparing to the drug-free control.

[6] = tested on: Gram-positive and Gram-negative bacteria; assay type: cell-based; details: MHB, four bacteria
Procedure: as §3, §4

[7] = tested on: LLC-PK1; assay: cells; assay type: cell-based, pig; details: LLC-PK1, 72 h, MTT
Procedure: (§5) Among the conjugates, LVXC-S-S-CTP10-NH2 (5) was the least cytotoxic. […] In the case of HEK 293 and LLC-PK1 cells, the IC50 values of 5 were nearly four times higher. […] Additionally, we noted that the cancer cells Hep G2 were less sensitive to the action of the given compounds than the non-cancer cells (HEK 293 and LLC-PK1).
(§6) Cytotoxicity was assessed against three mammalian cell lines: LLC-PK1, Hep G2, and HEK 293. Multiwell (96–well) plates were seeded at 7000 cells/well in Medium 199 supplemented with 7.5% FBS, MEM Eagle’s medium supplemented with 10% FBS, or DMEM medium supplemented with 10% FBS, respectively. All media were supplemented with L-glutamine and antibiotics (penicillin/streptomycin). Cells were allowed to attach overnight. Drugs were dissolved in cell culture medium and added to wells in 100-µL aliquots of 2× concentrated solutions, in triplicates. To control wells, 100 µL of the medium were added. Cells were incubated with the studied compounds for 72 h at 37 °C and 95%/5% or 90%/10% (HEK 293 cells) CO2 atmosphere. Then, 20-µL aliquots of MTT solution in PBS (4 mg/mL) were added to all wells and plates were incubated further for 3 h in 37 °C. Formazan crystals formed were dissolved in 100 µL of DMSO and the absorbance of the solutions was measured using a multiwell plate reader (Spark, Tecan, Männedorf, Switzerland) at λ = 540 nm. Cytotoxicity was determined compared to the drug-free control. All experiments were performed in triplicates.

[8] = tested on: P. aeruginosa ATCC 27853; assay: microbe, parasite or virus in culture; assay type: cell-based, Pseudomonas aeruginosa; details: for MIC50 / MIC90: P. aeruginosa ATCC 27853, MHB
Procedure: as §3, §4

[9] = tested on: S. aureus ATCC 29,213; assay: Resistance induction by serial passage on MHA plates; assay type: cell-based, Staphylococcus aureus; details: passaged with CIP 0.1875 μM or 3 0.375 μM
[10] = tested on: E. coli ATCC 25922; assay: microbe, parasite or virus in culture; assay type: cell-based, Escherichia coli; details: E. coli ATCC 25922, MHB
Procedure: as §3, §4

[11] = tested on: Hep G2; assay: cells; assay type: cell-based, human; details: Hep G2, 72 h, MTT
Procedure: as §5, §6

[12] = tested on: HEK 293; assay: cells; assay type: cell-based, human; details: HEK 293, 72 h, MTT
Procedure: as §5, §6

[13] = tested on: human red blood cells; assay: Hemolysis assay; details: for MHC50 (concentration causing 50% hemolysis): 1 h, 37 °C
[14] = tested on: S. epidermidis ATCC 12228; assay: microbe, parasite or virus in culture; assay type: cell-based, Staphylococcus epidermidis; details: S. epidermidis ATCC 12228, MHB
Procedure: as §3, §4

[15] = tested on: C. krusei DSM 6128; assay: microbe, parasite or virus in culture; details: Pichia kudriavzevii, DSM6128
[16] = tested on: C. glabrata DSM 11226; assay: microbe, parasite or virus in culture; details: Nakaseomyces glabratus, DSM11226
[17] = tested on: yeasts of the Candida genus; assay: microbe, parasite or virus in culture; details: read-out: MIC against Candida strains
[18] = tested on: bacteria; assay: Influence of salts: antibacterial activity in MHB2 compared to MHB; assay type: cell-based; details: MHB2: Ca(II) 20–25 mg/L, Mg(II) 10–12.5 mg/L
Procedure: Additionally, for selected compounds, the aspect of the influence of salts present in the medium on antimicrobial activity was evaluated. […] In the salt-enriched medium, the MIC values determined for TP10-NH2 were up to 40-fold higher than those found in MHB. The phenomenon of reduction of the growth inhibitory activity of antimicrobial peptides at a high salt concentration was previously evidenced by other researchers. It may cause severe limitations for AMPs’ usage as therapeutic agents because of the risk of potential inactivation by salts present in the human body.

[19] = tested on: C. krusei DSM 6128
[20] = tested on: C. glabrata DSM 11226
[21] = tested on: C. albicans Δopt1Δopt5Δptr2Δptr22
[22] = tested on: E. coli ATCC 25,922; set-up: method as in PMID 25891396; details: cited from earlier work
[23] = tested on: S. aureus ATCC 25,923 cells; assay: Stability inside bacterial cells (LC-MS of cell lysate)
[24] = tested on: C. albicans SC 5314
[25] = tested on: Staphylococcus aureus ATCC 25,923; set-up: method as in PMID 25891396; details: cited from earlier work
[26] = tested on: C. albicans Gu4
[27] = tested on: yeasts of the Candida genus
[28] = Staphylococcus aureus, ATCC29213
[29] = Pseudomonas aeruginosa, ATCC27853
[30] = Staphylococcus epidermidis, ATCC12228

## O=C(O)c1cn(C2CC2)c2cc(N3CCNCC3)c(F)cc2c1=O [CIP, ciprofloxacin]
[1]; human, 100 µM
  Incubation time at which significant/critical ROS level was noted: 15 min
[1]; human, 3 h, 100 µM
  Dot plot quadrant LB: 96.2 ± 2.6
  Dot plot quadrant LT: 1.1 ± 1.5
  Dot plot quadrant RB: 2.6 ± 1.6
  Dot plot quadrant RT: 0.7 ± 0.7
[1]; human, 6 h, 100 µM
  Dot plot quadrant LB: 97.5 ± 1.2
  Dot plot quadrant LT: 0.4 ± 0.3
  Dot plot quadrant RB: 2.1 ± 1.3
  Dot plot quadrant RT: 0.0 ± 0.0
[1]; human, 24 h, 100 µM
  Dot plot quadrant LB: 99.7 ± 0.2
  Dot plot quadrant LT: 0.1 ± 0.1
  Dot plot quadrant RB: 0.2 ± 0.1
  Dot plot quadrant RT: 0.0 ± 0.0
[2]; human, 500 µM
  Incubation time at which significant ROS effect was noted: 1 h
[3]
  Increase of MIC after the 5th passage: 8 fold
  Increase of MIC after the 10th passage: 8 fold
[4]
  Topoisomerase II inhibition at the highest used concentration: residual activity
[5]; [28]
  MIC50: 0.2 µM (≈ 0.0663 µg/mL)
  MIC90: 0.2 µM (≈ 0.0663 µg/mL)
[6]
  MIC50 range over tested bacteria: 0.0125 to 0.8 µM
  MIC90, upper end of range over tested bacteria: ≤ 1.6 µM
[7]; Sus scrofa
  IC50: > 200 µM
[8]; [29]
  MIC50: 0.4 µM (≈ 0.133 µg/mL)
  MIC90: 0.4 µM (≈ 0.133 µg/mL)
[9]
  Increase of MIC compared to the control after passaging: 2 fold
[10]; Escherichia coli, ATCC25922
  MIC50: < 0.0125 µM
  MIC90: 0.0125 µM (≈ 0.00414 µg/mL)
[11]; Homo sapiens, HepG2
  IC50: > 200 µM
[12]; Homo sapiens, HEK293
  IC50: > 200 µM
[13]
  Hemolytic effect: do not cause a hemolytic effect
[14]; [30]
  MIC50: 0.8 µM (≈ 0.265 µg/mL)
  MIC90: 1.6 µM (≈ 0.53 µg/mL)

## C[C@H]1COc2c(N3CCN(C)CC3)c(F)cc3c(=O)c(C(=O)O)cn1c23 [LVX, levofloxacin, reference compound]
[15]
  MIC50: > 200 µM
[4]
  Topoisomerase II inhibition at the highest used concentration: residual activity
[16]
  MIC50: > 200 µM
[5]; [28]
  MIC50: 0.4 µM (≈ 0.145 µg/mL)
  MIC90: 0.4 µM (≈ 0.145 µg/mL)
[6]
  MIC50 range over tested bacteria: 0.0125 to 0.8 µM
  MIC90, upper end of range over tested bacteria: ≤ 1.6 µM
[7]; Sus scrofa
  IC50: > 200 µM
[8]; [29]
  MIC50: 0.8 µM (≈ 0.289 µg/mL)
  MIC90: 0.8 µM (≈ 0.289 µg/mL)
[10]; Escherichia coli, ATCC25922
  MIC50: 0.025 µM (≈ 0.00903 µg/mL)
  MIC90: 0.025 µM (≈ 0.00903 µg/mL)
[11]; Homo sapiens, HepG2
  IC50: > 200 µM
[12]; Homo sapiens, HEK293
  IC50: > 200 µM
[13]
  Hemolytic effect: do not cause a hemolytic effect
[17]
  MIC: > 200 µM
[14]; [30]
  MIC50: 0.8 µM (≈ 0.289 µg/mL)
  MIC90: 1.6 µM (≈ 0.578 µg/mL)

## CC[C@H](C)[C@H](NC(=O)[C@H](CCCCN)NC(=O)[C@H](CCCCN)NC(=O)[C@H](C)NC(=O)[C@H](CC(C)C)NC(=O)[C@H](C)NC(=O)[C@H](C)NC(=O)[C@H](CC(C)C)NC(=O)[C@H](C)NC(=O)[C@H](CCCCN)NC(=O)[C@H](CC(C)C)NC(=O)[C@H](CC(N)=O)NC(=O)[C@@H](NC(=O)[C@H](CCCCN)NC(=O)CNC(=O)[C@H](CC(C)C)NC(=O)[C@H](CC(C)C)NC(=O)[C@H](Cc1ccc(O)cc1)NC(=O)CNC(=O)[C@H](C)N)[C@@H](C)CC)C(=O)N[C@@H](CC(C)C)C(N)=O [TP10-NH2, transportan 10, reference compound]
[18]
  Influence of salts (MHB2 vs MHB) on antibacterial activity: strongly affected
  MIC in salt-enriched medium (MHB2) relative to MHB: up to 40 fold
[19]
  MIC50: >200 µM
[20]
  MIC50: >200 µM
[1]; positive cells in 24 h, class
  ROS HL-60: ++ (++ <10% positive cells in 24 h)
[2]; positive cells in 24 h, class
  ROS HEK 293: ++ (++ <10% positive cells in 24 h)
[21]
  MIC50: 100 µM (≈ 218 µg/mL)
  MIC90: 100 µM (≈ 218 µg/mL)
[4]; pBR322 relaxation, 30 °C, 30 min
  Concentration of complete inhibition of topoisomerase II activity: 50 µM
[5]
  MIC50: 3.125 µM (≈ 6.82 µg/mL)
  MIC90: 3.125 µM (≈ 6.82 µg/mL)
[22]; E. coli ATCC 25,922, converted from μg/mL
  MIC: ~ 7 μM
[22]; E. coli ATCC 25,922
  MIC: 16 µg/mL (≈ 7.33 µM)
[7]
  IC50: 22.7 ± 5.65 µM
[8]
  MIC50: >100 µM
  MIC90: >100 µM
[8]; Pseudomonas aeruginosa, MHB
  MIC: > 100 µM
[23]
  Stability inside bacterial cells: resistant inside the bacterial cells
[10]
  MIC50: 1.6 µM (≈ 3.49 µg/mL)
  MIC90: 1.6 µM (≈ 3.49 µg/mL)
[11]
  IC50: 32.1 ± 1.65 µM
[12]
  IC50: 25.1 ± 0.86 µM
[13]
  MHC50 (concentration causing 50% hemolysis): ~200 µg/mL
[13]; converted from μg/mL
  MHC50 (concentration causing 50% hemolysis): ~ 92 μM
[24]
  MIC50: 100 µM (≈ 218 µg/mL)
  MIC90: 100 µM (≈ 218 µg/mL)
[25]; Staphylococcus aureus ATCC 25,923, converted from μg/mL
  MIC: ~ 7 μM
[25]; Staphylococcus aureus ATCC 25,923
  MIC: 16 µg/mL (≈ 7.33 µM)
[26]
  MIC50: 100 µM (≈ 218 µg/mL)
[27]
  MIC against C. albicans: 100 µM (≈ 218 µg/mL)
[14]
  MIC50: 1.6 µM (≈ 3.49 µg/mL)
  MIC90: 1.6 µM (≈ 3.49 µg/mL)
